Results reported in patent US7531527B2, “2-Propylidene-19-nor-vitamin D compounds” (Wisconsin Alumni Research Foundation, priority 2003, dated 2009).

Columns and labels:
[1] = tested on: 24-hydroxylase (24OHase) gene promoter; assay: Transcription activation, 24-hydroxylase promoter luciferase reporter in ROS 17/2.8 (bone) cells; type: cell-based; conditions: ROS 17/2.8 cells, 16 hours after dosing, FIG. 4
Method: Transcriptional activity was measured in ROS 17/2.8 (bone) cells that were stably transfected with a 24-hydroxylase (24OHase) gene promoter upstream of a luciferase reporter gene (Arbour et al., 1998). Cells were given a range of doses. Sixteen hours after dosing the cells were harvested and luciferase activities were measured using a luminometer.
“RLU” in FIG. 4 refers to relative luciferase units.

[2] = tested on: Male, weanling Sprague-Dawley rats; assay: Intestinal calcium transport (everted gut sac method); type: in vivo, rat; conditions: four consecutive ip doses, FIG. 5
Method: (§1) Male, weanling Sprague-Dawley rats were placed on Diet 11 (0.47% Ca) diet+AEK for one week followed by Diet 11 (0.02% Ca)+AEK for 3 weeks. The rats were then switched to a diet containing 0.47% Ca for one week followed by two weeks on a diet containing 0.02% Ca. Dose administration began during the last week on 0.02% calcium diet. Four consecutive ip doses were given approximately 24 hours apart. Twenty-four hours after the last dose, blood was collected from the severed neck and the concentration of serum calcium determined as a measure of bone calcium mobilization. The first 10 cm of the intestine was also collected for intestinal calcium transport analysis using the everted gut sac method.

[3] = tested on: Male, weanling Sprague-Dawley rats; assay: Bone calcium mobilization (serum calcium); type: in vivo, rat; conditions: four consecutive ip doses, FIG. 6
Method: as §1

[4] = target: T1, recombinantly produced rat receptor (1α,25-hydroxyvitamin D3 rat receptor) (Rattus norvegicus, UniProt P13053); assay: Competitive VDR binding; conditions: FIGS. 1 and 2
T1 construct: made in house
T1 sequence (P13053 1-423): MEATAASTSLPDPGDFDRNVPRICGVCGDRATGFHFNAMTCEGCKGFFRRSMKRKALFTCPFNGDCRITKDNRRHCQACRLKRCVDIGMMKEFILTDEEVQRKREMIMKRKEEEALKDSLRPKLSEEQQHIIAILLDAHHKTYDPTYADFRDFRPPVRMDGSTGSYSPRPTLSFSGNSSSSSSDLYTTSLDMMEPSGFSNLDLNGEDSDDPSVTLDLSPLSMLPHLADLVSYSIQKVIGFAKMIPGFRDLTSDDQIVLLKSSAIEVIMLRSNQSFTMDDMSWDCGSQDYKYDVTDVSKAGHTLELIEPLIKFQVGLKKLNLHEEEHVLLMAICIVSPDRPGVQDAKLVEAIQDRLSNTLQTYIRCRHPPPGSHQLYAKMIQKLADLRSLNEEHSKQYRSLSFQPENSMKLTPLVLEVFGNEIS
Method: Competitive binding of the analogs to the porcine intestinal receptor was carried out by the method described by Dame et al (Biochemistry 25, 4523-4534, 1986), except the recombinantly produced rat receptor was used as the receptor (see Vanhooke et al., Biochemistry, in press, 2004).

[5] = tested on: human leukemia cells (HL-60 cells); assay: HL-60 cell differentiation (NBT reduction); type: cell-based; conditions: for potency in promoting the differentiation of leukemia cells: HL-60 cells, compared with 1α,25-dihydroxyvitamin D3 and 2MD, FIG. 3; for percent of HL-60 cells induced to differentiate: NBT assay, concentration 1×10^−7M
Method: The differentiation of HL-60 promyelocytic into monocytes was determined as described by Ostrem et al (J. Biol. Chem. 262, 14164-14171, 1987).
Differentiation activity was assessed by a standard differentiation assay, abbreviated as NBT reduction (nitroblue tetrazolium reduction). The assay was conducted according to known procedures, as given, for example, by DeLuca et al U.S. Pat. No. 4,717,721 and Ostrem et al, J. Biol. Chem. 262, 14164, 1987. For the assay, the differentiation activity of the test compounds is expressed in terms of the percent of HL-60 cells having differentiated to normal cells in response to a given concentration of test compound.

Row | activity in binding to the 1α,25-hydroxyvitamin D3 rat receptor [4] | Substance | transcriptional activity in bone cells [1] | intestinal calcium transport activity [2] | intestinal calcium transport activity compared with 2MD [2] | ability to mobilize calcium from bone [3] | bone calcium mobilization compared with 2MD [3] | potency in promoting the differentiation of leukemia cells [5] | percent of HL-60 cells induced to differentiate [5]
1 |  | 2-[(3′-methoxymethoxy)propylidene]-19-nor-1α,25-dihydroxyvitamin D3 [F-Wit] | significant transcriptional activity | relatively high intestinal calcium transport activity | more active than 2MD | significant ability to mobilize calcium from bone | less active in this regard than 2MD |  | 
2 | very active | 2-(3′-hydroxypropylidene)-19-nor-1α,25-(OH)2D3 [1AGR] | significant transcriptional activity | relatively high intestinal calcium transport activity | more active than 2MD | significant ability to mobilize calcium from bone | less active in this regard than 2MD | as potent as 1α,25-dihydroxyvitamin D3 and 2MD | the same degree of differentiation
3 | very active | 2-(3′-hydroxypropylidene)-19-nor-(20S)-1α,25-(OH)2D3 [1AGS] | significant transcriptional activity | relatively high intestinal calcium transport activity | more active than 2MD | significant ability to mobilize calcium from bone | less active in this regard than 2MD | as potent as 1α,25-dihydroxyvitamin D3 and 2MD | the same degree of differentiation
